Data: patent publication US11485728B2, “Small molecules for the treatment of autoimmune diseases and cancer” (Athos Therapeutics, Inc., priority 2020, dated 2022)

Key:
colon cell line HCT = experiment: Gene expression (RNA-Seq) of colon cancer cells treated with Compound 156; format: cell-based, Human
Experimental: Methods: RNA was extracted from HTC colon cancer cells that has been treated or not with Compound 156 and was sent to the Technology Center for Genomics & Bioinformatics at UCLA for sequencing.
Library construction and sequencing methods: Libraries for RNA-Seq were prepared with TruSeq Stranded mRNA Library Prep Kit. The workflow consists of mRNA enrichment and fragmentation. Cleaved RNA fragments are copied into first strand cDNA using reverse transcriptase and random primers. Strand specificity is achieved by replacing dTTP with dUTP and followed by second strand cDNA synthesis using DNA Polymerase I and RNase H. cDNA generation is followed by A-tailing, adaptor ligation and PCR amplification. Different adaptors were used for multiplexing samples in one lane. Sequencing was performed on Illumina NovaSeq 6000 for PE 2×50 run. Data quality check was done on Illumina SAV. Demultiplexing was performed with Illumina Bcl2fastq v2.19.1.403 software.
Bioinformatics methods: The reads were mapped by STAR 2.27a to Human GRCh38 genome and read counts per gene were quantified using Ensembl Human GRCh38.98 GTF file. Gene differential expression analysis and downstream gene enrichment analysis was performed at Athos Therapeutics. The DESeq2 R package was used for differential expression analysis. DESeq2 FDR cutoff: 0.05, DESeq2 Log 2FC cutoff: 1 (FC cutoff: 2). Gene enrichment analysis was performed using the Enrichr (https://maayanlab.cloud/Enrichr/enrich) and gprofiler (https://biit.cs.ut.ee/gprofiler/gost) platforms.

[1] = Dosing formulation stability (physical, potency, impurity profile); format: physicochemical; details: for Conc. (potency) / Observation (physical state): dosing formulation
Experimental: 5 mg/mL of test compound was formulated with 10% Dimethylacetamide (DMA), 30% Propylene Glycol, 35% PEG-300, 25% water (H2O). The formulation solution was stored at 4° C. and 25° C. The samples were retrieved at the following time points: 1 day, 3 days, 5 days, 7 days, 10 days and 14 days. The sample retrieved at each time point was examined visually observation of the physical state (texture and color) prior to sample preparation for analysis for physical stability. For chemical stability, the sample was diluted 1:250 dilution with acetonitrile (ACN) for potency analysis, and to 100 ug/mL final solution for impurity profile. The sample were prepared in triplication for potency analysis. The samples were then injected to HPLC for the determination of test compound concentration and its impurity profile. An Agilent 1260 Infinity II Lab LC Series HPLC system was used including 1260 Quat pump, 1260 vial autosampler, ICC column oven, and 1260 DAD WR detector. The chromatographic separation was achieved by a Phenomenex Synergi Polar RP column (150×4.6 mm, 4 μm, 80 Å). The flow rate was 1 mL/min and the detection was set at 254 nm. Injection volume was 10 uL, otherwise specified. The mobile phase consisted A, water with 0.1% trifluoroacetic acid and B, acetonitrile with 0.1% trifluoroacetic acid. […] For impurity profile, the gradient was A/B (99:1) from 0 minute; to A/B (1:99) from 0 to 15 minutes; A/B (1:99) from 15 to 18 minutes; to A/B (99:1) from 18 to 18.1 minutes; A/B (99:1) from 18.1 to 20 minutes. Data acquisition and peak integrations were obtained by OpenLAB CDS Version 2.4 (Agilent) operating with Windows (Microsoft).
Physical and chemical stability of dosing formulation lead to the investigation of potential impurities upon storage at various temperatures. The stability results can be used to assess the appropriate storage conditions and shelf life of a formulation, and can provide important information for drug formulation development, nonclinical, and clinical studies, especially on-going efficacy studies. The dosing formulation in these experiments contained 5 mg/mL test compound 1, with 10% Dimethylacetamide (DMA), 30% Propylene Glycol, 35% PEG-300, 25% water (H2O). The dosing formulation was stored at 4° C. and 25° C. The samples were retrieved at the following time points: 1 day and 3 days. The dosing formulation was diluted and analyzed for potency and impurity profile using reverse phase high pressure liquid chromatography. The impurity profile was described as the relative percent peak area of each peak detected.

[2] = cell cycle pathway, colon cell line HCT
[3] = p53 pathway, colon cell line HCT

COc1cc2c(NC3CCN(C(C)C)CC3)nc(-n3ccnc3)nc2cc1OCCCN1CCCC1 [Compound 156, 2-(1H-imidazol-1-yl)-N-(1-isopropylpiperidin-4-yl)-6-methoxy-7-(3-(pyrrolidin-1-yl)propoxy)quinazolin-4-amine]
Log2 Fold Change BUB1 (colon cell line HCT; [2]): −5.157
Log2 Fold Change BUB1B (colon cell line HCT; [2]): −4.7094
Log2 Fold Change CCNA2 (colon cell line HCT; [2]): −5.163
Log2 Fold Change CCNB1 (colon cell line HCT; [2]): −4.231
Log2 Fold Change CCNB2 (colon cell line HCT; [2]): −5.041
Log2 Fold Change CCNE2 (colon cell line HCT; [2]): −5.409
Log2 Fold Change CDC6 (colon cell line HCT; [2]): −4.121
Log2 Fold Change CDC7 (colon cell line HCT; [2]): −2.499
Log2 Fold Change CDC20 (colon cell line HCT; [2]): −4.826
Log2 Fold Change CDC25A (colon cell line HCT; [2]): −2.858
Log2 Fold Change CDC25C (colon cell line HCT; [2]): −5.142
Log2 Fold Change CDC45 (colon cell line HCT; [2]): −4.679
Log2 Fold Change CDK1 (colon cell line HCT; [2]): −4.779
Log2 Fold Change CDKN2C (colon cell line HCT; [2]): −5.14
Log2 Fold Change CHEK1 (colon cell line HCT; [2]): −1.994
Log2 Fold Change CHEK2 (colon cell line HCT; [2]): −2.186
Log2 Fold Change DBF4 (colon cell line HCT; [2]): −2.536
Log2 Fold Change E2F1 (colon cell line HCT; [2]): −4.309
Log2 Fold Change E2F2 (colon cell line HCT; [2]): −5.296
Log2 Fold Change ESPL1 (colon cell line HCT; [2]): −4.821
Log2 Fold Change MAD2L1 (colon cell line HCT; [2]): −4.388
Log2 Fold Change MCM2 (colon cell line HCT; [2]): −3.686
Log2 Fold Change MCM3 (colon cell line HCT; [2]): −2.599
Log2 Fold Change MCM4 (colon cell line HCT; [2]): −3.347
Log2 Fold Change MCM5 (colon cell line HCT; [2]): −4.183
Log2 Fold Change MCM6 (colon cell line HCT; [2]): −3.834
Log2 Fold Change MCM7 (colon cell line HCT; [2]): −3.817
Log2 Fold Change ORC1 (colon cell line HCT; [2]): −4.987
Log2 Fold Change ORC6 (colon cell line HCT; [2]): −3.9103
Log2 Fold Change PKMYT1 (colon cell line HCT; [2]): −3.971
Log2 Fold Change PLK1 (colon cell line HCT; [2]): −4.8821
Log2 Fold Change PTTG1 (colon cell line HCT; [2]): −2.317
Log2 Fold Change RBL1 (colon cell line HCT; [2]): −3.043
Log2 Fold Change SKP2 (colon cell line HCT; [2]): −2.823
Log2 Fold Change SMC1A (colon cell line HCT; [2]): −1.934
Log2 Fold Change TTK (colon cell line HCT; [2]): −4.824
Log2 Fold Change WEE1 (colon cell line HCT; [2]): −2.394
number of genes activated by p53 that were upregulated (colon cell line HCT; data not shown): > 80 genes
number of genes regulated by E2F-1 and E2F-4 that were downregulated (colon cell line HCT; data not shown): > 500 genes
Log2 Fold Change CCND1 (colon cell line HCT; [3]): 1.792
Log2 Fold Change CD82 (colon cell line HCT; [3]): 1.878
Log2 Fold Change CDKN1A (colon cell line HCT; [3]): 3.19
Log2 Fold Change FAS (colon cell line HCT; [3]): 2.667
Log2 Fold Change GADD45A (colon cell line HCT; [3]): 1.969
Log2 Fold Change MDM2 (colon cell line HCT; [3]): 3.166
Log2 Fold Change PMAIP1 (colon cell line HCT; [3]): 3.102
Log2 Fold Change RRM2B (colon cell line HCT; [3]): 2.678
Log2 Fold Change SERPINB5 (colon cell line HCT; [3]): 2.471
Log2 Fold Change SERPINE1 (colon cell line HCT; [3]): 3.232
Log2 Fold Change SESN1 (colon cell line HCT; [3]): 1.955
Log2 Fold Change SESN2 (colon cell line HCT; [3]): 2.19
Log2 Fold Change THBS1 (colon cell line HCT; [3]): 1.872
Log2 Fold Change TP53I3 (colon cell line HCT; [3]): 3.87
Log2 Fold Change ZMAT3 (colon cell line HCT; [3]): 3.367
genes related to cell cycle (colon cell line HCT; treated vs not treated): downregulated
p-53 related genes (colon cell line HCT; treated vs not treated): upregulated

COc1cc2c(NC3CCS(=O)(=O)CC3)nc(N3CCC(F)(F)CC3)nc2cc1OCCCN1CCCC1 [Compound 1, 4-((2-(4,4-difluoropiperidin-1-yl)-6-methoxy-7-(3-(pyrrolidin-1-yl)propoxy)quinazolin-4-yl)amino)tetrahydro-2H-thiopyran 1,1-dioxide]
Impurity Peak RRT 0.978, relative percent peak area ([1]; 4° C., day 0): 0.14%
Peak RRT 1.00 (Compound 1), relative percent peak area ([1]; 4° C., day 0): 99.86%
Impurity Peak RRT 0.978, relative percent peak area ([1]; 4° C., day 1): 0.14%
Peak RRT 1.00 (Compound 1), relative percent peak area ([1]; 4° C., day 1): 99.86%
Impurity Peak RRT 0.978, relative percent peak area ([1]; 4° C., day 3): 0.31%
Peak RRT 1.00 (Compound 1), relative percent peak area ([1]; 4° C., day 3): 99.69%
Impurity Peak RRT 0.978, relative percent peak area ([1]; 25° C., day 0): 0.14%
Peak RRT 1.00 (Compound 1), relative percent peak area ([1]; 25° C., day 0): 99.86%
Impurity Peak RRT 0.978, relative percent peak area ([1]; 25° C., day 1): 0.13%
Peak RRT 1.00 (Compound 1), relative percent peak area ([1]; 25° C., day 1): 99.87%
Impurity Peak RRT 0.978, relative percent peak area ([1]; 25° C., day 3): 0.30%
Peak RRT 1.00 (Compound 1), relative percent peak area ([1]; 25° C., day 3): 99.70%
Conc. (potency) ([1]; 4° C., day 0): 5560 µg/mL
Observation (physical state) ([1]; 4° C., day 0): Clear solution
Conc. (potency) ([1]; 4° C., day 1): 5570 µg/mL
Observation (physical state) ([1]; 4° C., day 1): Clear solution
Conc. (potency) ([1]; 4° C., day 3): 5650 µg/mL
Observation (physical state) ([1]; 4° C., day 3): Clear solution
Conc. (potency) ([1]; 25° C., day 0): 5560 µg/mL
Observation (physical state) ([1]; 25° C., day 0): Clear solution
Conc. (potency) ([1]; 25° C., day 1): 5470 µg/mL
Observation (physical state) ([1]; 25° C., day 1): Clear solution
Conc. (potency) ([1]; 25° C., day 3): 6090 µg/mL
Observation (physical state) ([1]; 25° C., day 3): Clear solution
